Target: HIV-1 RT (Human immunodeficiency virus type 1 group M subtype B, UniProt P03366)
Test: Steady-state competition assay, IC50 determination
Assay type: biochemical
Conditions: dTTP incorporation, ratio of IC50 values

SMILES | fold improvement of polymerization inhibition over propargyl-4PEG-TMC | fold improvement of polymerization inhibition relative to the TMC-derivative | fold improvement of polymerization inhibition relative to the TMC-derivative (listed as triphosphate of d4T-4PEG-TMC) | fold decrease in potency relative to the TMC-derivative
Cc1cc(C#CCOCCOCCOCCOCCOCC#Cc2cn([C@H]3C=C[C@@H](COP(=O)(O)OP(=O)(O)OP(=O)(O)O)O3)c(=O)[nH]c2=O)cc(C)c1Oc1ccnc(Nc2ccc(C#N)cc2)n1 [d4TTP-4PEG-TMC, d4U-Propynyl-4-PEG-propynyl-TMC-triphosphate] | 40 fold | approximately 4.3 fold | 4.3 fold | –
C#CCOCCOCCOCCOCCOCC#Cc1cc(C)c(Oc2ccnc(Nc3ccc(C#N)cc3)n2)c(C)c1 [propargyl-4PEG-TMC, 4-[4-(4-{3-[2-(2-{2-[2-(Prop-2-ynyloxy)ethoxy]ethoxy}ethoxy)-ethoxy]prop-1-ynyl}-2,6-dimethylphenoxy)pyrimidin-2-ylamino]-benzonitrile] | – | – | – | 10 fold
